Data published in US20210147812A1, “Method of Preparing Cancer Spheroid and Method of Selecting Colorectal Cancer Patient” (Kyo Diagnostics K.K., priority 2017, published 2021).
Like-named read-outs stand apart in the source and are kept apart here.

Legend:
HC6T-PDSX mice = experiment: Drug sensitivity tests in PDSX models (tumor volume); assay type: in vivo, nude mice (BALB/c-nu); conditions: 21 days; erdafitinib 10 mg/kg orally, cetuximab 250 μg i.p. twice a week
Procedure: Patient-derived spheroids were cultured in a 12-well culture plate to become confluent (4×10^5-4×10^6 cells/plate) and the spheroids were rinsed twice with PBS and placed in a 1.5 ml tube with Matrigel. The volume of the spheroid suspension was adjusted to 100 μl with PBS and the suspension thus obtained was subcutaneously injected into 4-6 week female nude mice (BALB/c-nu) at 1×10^5-9×10^5 cells/mouse.
PDSX mice were subjected to drug-dosing test when the mean estimated tumor volume reached 300 mm^3. Tumor volume (mm^3) was estimated by the following formula: length×width^2/2. We excluded the following kinds of tumors from the tests as outliers; too small (<100 mm^3), spontaneously shrinking, remaining unchanged in size, or deeply implanted and difficult to be measured.
The day of the dosing start was defined as day 0, with the tumor volume of each mouse measured twice a week for 3 weeks (days 0-21).
The relative tumor volume was estimated by calibration to the initial tumor volume on day 0. To evaluate the drug dosing effects, the ratio of tumor volume on day 21 to that on day 0 was compared among the four groups.

[1] = system: normal colonic epithelial stem cell spheroids; experiment: Drug sensitivity tests in spheroids (GEI); assay type: cell-based, human; conditions: concentrations below 1 μM
Procedure: (§1) Luciferase-expressing spheroids were cultured in 2-3 wells of a 12-well cell-culture plate (in 60-90 μl Matrigel). […] From the spheroid solution thus obtained, 300 μl was taken and the cells were resuspended in an equal volume of Matrigel. The spheroid cells in Matrigel were distributed to the wells of 96-well “white” cell-culture plates (Corning; 3 μl per well) on a plate heater at 37° C., and cultured overnight in 100 μl/well of the medium. Spheroids were rinsed with 100 μl/well of PBS, and incubated with 50 μl of 150 μg/ml luciferin in phenol red-free DMEM/F12 medium (Nacalai) for 10 min at room temperature (20-28° C.). Luminescence was scored using a conventional imaging device (Gel Doc XR+, BioRad). After this initial measurement, spheroids in each well were rinsed with 100 μl of PBS, and cultured in 100 μl of the medium. Luminescence was determined on day 1 and day 3. Effects of a drug was determined by obtaining GEI (growth effect index), which is the growth rate of a group treated with the drug compared to a control group (a solvent-treated group). Results were shown using means in three independent experiments each conducted in triplicate.

[2] = system: spheroid lines HC6T, HC9T, and HC20T; experiment: Drug sensitivity tests in spheroids (GEI); assay type: cell-based, human; conditions: dose-dependent, FIGS. 16A-16C
Procedure: as §1
The spheroid lines shown in Table 3 were used in this example.

[3] = system: HC6T-PDSX and HC20T-PDSX tumors; experiment: Histological examinations of PDSX tumors at day 21 (H&E, Ki67); assay type: in vivo, nude mice (BALB/c-nu); conditions: erdafitinib monotherapy group
Procedure: Paraffin-embedded tissues of PDSXs were prepared according to the standard procedures. Sections were stained with H&E or immunostained for Ki67.

[4] = system: three luciferase-expressing CRC-TIC spheroid lines (HC21T, HC18T, HC25T); experiment: Chemical library screening of 80 agonists or activators for growth-promoting effects; assay type: cell-based; conditions: Homo sapiens, read-out: stimulation of spheroid growth
Procedure: For growth monitoring assays, luciferase-expressing spheroids were cultured in 2-3 wells of a 12-well cell-culture plate. […] The spheroid cells were resuspended in Matrigel, distributed to the wells of 96-well “white” cell-culture plates (Corning; 3 μl per well) on a plate heater at 37° C., and cultured overnight in 100 μl/well of the medium. Spheroids were rinsed with 100 μl/well of PBS, and incubated with 50 μl of 150 μg/ml luciferin in phenol red-free DMEM/F12 medium (Nacalai) for 10 min at room temperature […]. Luminescence was scored using a conventional imaging device (Gel Doc XR+, BioRad). After this initial measurement, spheroids in each well were rinsed with 100 μl of PBS, and cultured in 100 μl of the medium. Luminescence was determined daily or 3 days later. The cell growth rate for each well was estimated as the proportion of photon counts to those on day 1.

[5] = system: two CRC-TIC spheroid lines (HC18T and HC21T); experiment: Titration experiments, dose-dependent effects on growth (GEI); assay type: cell-based, human; conditions: for effect on spheroid growth in titration: at 10 μM
Procedure: Shown are the plots and means of GEI in three independent experiments. Asterisks indicate significant differences from the solvent-only group (P<0.05; analyzed using one-way ANOVA followed by Tukey's post-test).
Shown are the mean GEI±SEM (independent experiments, n=3). Asterisks indicate significant differences from the solvent-only (0 μM) group (P<0.05; analyzed using one-way ANOVA followed by Tukey's post-test).
(§2) Luminescence was determined daily or 3 days later. The cell growth rate for each well was estimated as the proportion of photon counts to those on day 1. Four or six replicates (with similar statistical power) were analyzed for each data point in all experiments except for the chemical compound screening assays.

[6] = system: eleven CRC-TIC spheroid lines and four normal spheroid lines; experiment: Dose-dependent effects of SB431542 on the growth of spheroid lines (GEI); assay type: cell-based, human
Procedure: Luciferase-expressing cancer and normal spheroids were cultured in the cancer medium and the eL-WRN medium each containing EGF and bFGF, respectively, in the presence of SB431542 at the indicated concentrations. Tested were eleven CRC-TIC spheroid lines (circle) and four normal spheroid lines (square). Shown are the mean GEI of four replicates.
as §2

[7] = system: CRC spheroids (HC18T, HC21T, and HC52T); experiment: Morphology of spheroids after treatment with cAMP-signaling activators (phase-contrast micrographs); assay type: cell-based, human; conditions: 10 μM CV1808, 1 μM NECA, or 1 μM forskolin for five days
HC21T spheroid line = experiment: Titration experiment, growth promotion (GEI); assay type: cell-based, human
Procedure: as §2

[8] = system: CRC-TIC spheroid lines that carried wild-type RAS/RAF genes (HC6T, HC9T, HC11T, HC21T); experiment: Stimulation of spheroid growth with EGF and/or bFGF, luminescence-based growth monitoring (GEI); assay type: cell-based, human; conditions: HC6T, HC9T
Procedure: as §2
To investigate whether EGF and bFGF helped spheroid proliferation in the cancer medium as described above, we cultured with EGF and/or bFGF four slow-growing CRC-TIC spheroid lines that carried wild-type RAS/RAF genes (HC6T, HC9T, HC11T, HC21T). Because EGF/bFGF facilitated the growths of these spheroid lines substantially (FIG. 3A), we then quantified their effects by the luminescence-based growth monitoring. To calibrate the effects, we introduced the growth effect index (GEI) defined as the relative growth rate of a treated group to that of its solvent-only control in each paired assay. […] The extents of growth promotion by EGF and bFGF were different depending on the spheroid line. […] In another spheroid line (HC21T), the effects were similar between the two growth factors (FIG. 3B).

COc1cc(OC)cc(N(CCNC(C)C)c2ccc3ncc(-c4cnn(C)c4)nc3c2)c1 [erdafitinib]
tumor volume versus control (HC6T-PDSX mice): reduced the tumor volume
growth of normal spheroids [1]: hardly suppressed the growth
growth of spheroid lines (GEI) [2]: suppressed the growth
tumors that disappeared (complete response) [3]: One of three

COC(=O)C(Cc1ccc(OCCn2c(=O)sc3cc(C(=O)c4ccccc4)ccc32)cc1)C(=O)OC [compound 526948, [[4-[2-(6-Benzoyl-2-oxo-3(2H)-benzothiazolyl)ethoxy]phenyl]methyl]-1,3-propanedioic acid dimethyl ester]
activation at 10 µM ([4]; 10 μM each): > 25%

CCCc1c(OCCCOc2ccc(OCC(=O)O)cc2)ccc(C(C)=O)c1O [L-165,041, [4-[3-(4-Acetyl-3-hydroxy-2-propylphenoxy)propoxy]phenoxy]acetic acid]
activation at 10 µM ([4]; 10 μM each): > 25%

COCc1c(-c2cc3cc(C)cc(OC)c3s2)c2c(N)ncnn2c1CN1CCNC(=O)C1 [rogoratinib]
growth of spheroid lines (GEI) [2]: suppressed the growth

CCCCCCCCc1ccc(-c2ccc(C(=O)O)cc2)cc1 [AC55649, 4′-Octyl-[1,1′-biphenyl]-4-carboxylic acid]
activation at 10 µM ([4]; 10 μM each): > 25%

CC(C)(Sc1ccc(CCN(CCCCC2CCCCC2)C(=O)NC2CCCCC2)cc1)C(=O)O [GW7647, 2-methyl-2-[[4-[2-[[(cyclohexylamino)carbonyl](4-cyclohexylbutyl)amino]ethyl]phenyl]thio]-propanoic acid]
activation at 10 µM ([4]; 10 μM each): > 25%

C=CC(=O)N[C@H]1CCOC[C@H]1Nc1ncc2cc(-c3c(Cl)c(OC)cc(OC)c3Cl)ccc2n1 [BLU554]
growth of spheroid lines (GEI) [2]: suppressed the growth

Cc1cc(SCc2sc(-c3ccc(C(F)(F)F)c(F)c3)nc2C)ccc1OCC(=O)O [GW0742, [4-[[[2-[3-fluoro-4-(trifluoromethyl)phenyl]-4-methyl-5-thiazolyl]methyl]thio]-2-methylphenoxy]-acetic acid]
effect on spheroid growth in titration [5]: significant effects
activation at 10 µM [4]: > 25%

NC(=O)c1ccc(-c2nc(-c3ccc4c(c3)OCO4)c(-c3ccccn3)[nH]2)cc1 [SB431542, 4-[4-(1,3-benzodioxol-5-yl)-5-(2-pyridinyl)-1H-imidazol-2-yl]benzamide]
effect on spheroid growth ([6]; at 10 μM): growth inhibition
effect on cancer versus normal spheroids ([6]; indicated concentrations, FIG. 7A): effects on cancer spheroids were less than those on normal spheroids

Nc1nc2c(ccc3ccccc32)s1 [SKA-31, Naphtho[1,2-d]thiazol-2-ylamine]
effect on spheroid growth in titration [5]: significant effects
activation at 10 µM ([4]; 10 μM each): > 25%

CCn1c(=O)[nH]c2cc(Cl)c(Cl)cc21 [DCEBIO, 5,6-Dichloro-1-ethyl-1,3-dihydro-2H-benzimidazol-2-one]
activation at 10 µM ([4]; 10 μM each): > 25%

CN[C@H](CC(=O)O)C(=O)O [NMDA, N-Methyl-D-aspartic acid]
activation at 10 µM [4]: > 25%

CCN1CCN(c2ccc(Nc3cc(N(C)C(=O)Nc4c(Cl)c(OC)cc(OC)c4Cl)ncn3)cc2)CC1 [BGJ398]
growth of spheroid lines (GEI) [2]: suppressed the growth

Nc1nc(Nc2ccccc2)nc2c1ncn2[C@@H]1O[C@H](CO)[C@@H](O)[C@H]1O [CV1808, 2-phenylaminoadenosine]
growth-promoting effect compared with NECA ([5]; dose-dependent, FIG. 9A): growth-promoting effect though weaker than that of NECA
morphological changes in spheroids [7]: cell flattening and increased sphere size
activation at 10 µM ([4]; 10 μM each): > 25%

AZD4547
growth of spheroid lines (GEI) [2]: suppressed the growth

CCNC(=O)[C@H]1O[C@@H](n2cnc3c(N)ncnc32)[C@H](O)[C@@H]1O [NECA, 5′-(N-ethyl-carboxamido)-adenosine]
morphological changes in spheroids [7]: cell flattening and increased sphere size
EC50 (HC21T spheroid line): 195 nM

bFGF: basic fibroblast growth factor, recombinant human protein
extent of growth promotion, bFGF versus EGF [8]: more effective than EGF
